These results are taken from US7807162B2, “Single domain VHH antibodies against von Willebrand factor” (Ablynx N.V., priority 2005, dated 2010).

The subject of the experiment is ADAMTS-13. Description: Cleavage of ULvWF platelet strings by ADAMTS-13 (perfusion assay). It is filed as cell-based, human. On the procedure:
ADAMTS-13 reduces the size of large and ultralarge VWF multimers to smaller forms by specifically cleaving the Y842/M843 peptide bond in the VWF A2 domain.
In a first experiment, strings were generated by a 4 minute perfusion of washed platelets resuspended in buffer over histamine-stimulated endothelial cells. Subsequently, the non-adhered platelets were washed away by a 4 minute perfusion of buffer. After that, buffer was perfused for an other 4 minutes, followed by a 4 minute perfusion of pooled normal plasma containing ADAMTS-13. Detachment of the platelet strings was observed after perfusion of pooled normal plasma (FIG. 43). More than 95% of the strings were cleaved after the 4 minute perfusion.
In a next experiment, strings were generated by a 4 minute perfusion of washed platelets resuspended in buffer over histamine-stimulated endothelial cells and the non-adhered platelets were washed away by a 4 minute perfusion of buffer as above.

“ALX-0081: ALX-0081 (SEQ ID NO:98), Nanobody; humanised bivalent nanobody with the 3a linker”: under “ALX-0081 10 μg/ml”, the “effect on the cleavage of ULvWF strings by ADAMTS-13” value is listed as “does not have an effect”. The “strings cleaved after the 4 minute perfusion of pooled normal plasma” value (ALX-0081 10 μg/ml (10-fold molar excess over vWF)) was 95%.
